Like-named read-outs stand apart in the source and are kept apart here.
Target: Monoacylglycerol Lipase (MAGL) (Homo sapiens (Human), UniProt Q99685)
Test: MAGL inhibition potency (IC50) assay with 4NPA substrate
Format: biochemical
[1] = Method 14: Reaction Biology MAGL enzyme, 6 nM, read-out: MAGL Potency (Detection Method)
[2] = Method 2: Cayman Chemical MAGL enzyme, 10 nM, read-out: Potency (MAGL inhibition)
[3] = Method 6: Reaction Biology MAGL enzyme, 6 nM, read-out: MAGL Potency (Detection Method)
[4] = Method 14: Reaction Biology MAGL enzyme, 6 nM, read-out: Potency (MAGL inhibition)
[5] = Method 6: Reaction Biology MAGL enzyme, 6 nM, read-out: Potency (MAGL inhibition)
[6] = Method 11: Reaction Biology MAGL enzyme, 25 nM (name: Conc 20), read-out: MAGL Potency (Detection Method)
[7] = Method 12: Reaction Biology MAGL enzyme, 15 nM, read-out: Potency (MAGL inhibition)

Sequence of Monoacylglycerol Lipase (MAGL) (Q99685 2-303): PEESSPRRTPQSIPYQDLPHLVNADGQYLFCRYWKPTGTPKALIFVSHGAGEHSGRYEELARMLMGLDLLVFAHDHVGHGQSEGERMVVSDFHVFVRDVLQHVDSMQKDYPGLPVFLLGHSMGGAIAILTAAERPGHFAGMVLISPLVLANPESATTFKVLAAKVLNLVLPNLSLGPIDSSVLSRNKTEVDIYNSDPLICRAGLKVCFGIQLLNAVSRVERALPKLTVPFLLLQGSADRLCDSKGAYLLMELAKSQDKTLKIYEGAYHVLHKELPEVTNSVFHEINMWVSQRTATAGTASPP

Cc1cc(C2CC3(C2)CN(C(=O)c2cc(O)c(C)cc2F)C3)n(-c2ccccc2C)n1 [Compound 371, (2-fluoro-5-hydroxy-4-tolyl){6-[3-methyl-1-(o-tolyl)-5-pyrazolyl]-2-aza-2-spiro[3.3]heptyl}methanone]
IC50 [1]: 0.05 to 0.15 µM

Cc1cc(C2CC3(C2)CN(C(=O)c2ccn(C)c2)C3)n(-c2ccccc2C)n1 [Compound 182]
IC50 [2]: > 10 µM

Cc1cc(C2CC3(C2)CN(C(=N)c2cc(O)ccc2F)C3)n(-c2ccccc2C)n1 [Compound 144]
IC50 [2]: > 10 µM

Cc1cc(F)c(C(=O)N2CC3(CC(n4ncc(C)c4-c4ccccc4C)C3)C2)cc1O [Compound 407]
IC50 [3]: 0.05 to 0.15 µM

O=C(c1cc(O)ccc1F)N1CC2(CC(C(=O)N3CCC4(COC4)C3)C2)C1 [Compound 391]
IC50 [4]: > 10 µM

Cc1cc(C2CC3(C2)CN(C(=O)c2ccc(F)cc2OC2CC2)C3)n(-c2ccccc2C)n1 [Compound 374, (2-cyclopropoxy-4-fluorophenyl) {6-[3-methyl-1-(o-tolyl)-5-pyrazolyl]-2-aza-2-spiro[3.3]heptyl}methanone]
IC50 [1]: 0.15 to 0.5 µM

Cc1ccccc1-c1cc(C)n(C2CC3(C2)CN(C(=O)c2cc(O)ccc2F)C3)n1 [Compound 442]
IC50 [5]: > 10 µM

Cc1ccccc1-c1nnc(C2CC3(C2)CN(C(=O)c2cc(O)ccc2F)C3)o1 [Compound 378, (2-fluoro-5-hydroxyphenyl){6-[5-(o-tolyl)-1,3,4-oxadiazol-2-yl]-2-aza-2-spiro[3.3]heptyl}methanone]
IC50 [1]: 0.5 to 1 µM

Cc1ccc(F)cc1-c1cc(C(F)(F)F)nn1C1CC2(C1)CN(C(=O)c1ccc(F)cc1OC1CC1)C2 [Compound 457, (2-cyclopropoxy-4-fluorophenyl){6-[5-(5-fluoro-2-tolyl)-3-(trifluoromethyl)-1-pyrazolyl]-2-aza-2-spiro[3.3]heptyl}methanone]
IC50 [6]: 1 to 5.1 µM

Cc1cc(F)ccc1-n1c(C)cnc1C1CC2(C1)CN(C(=O)c1cc(O)ccc1F)C2 [Compound 380, (2-fluoro-5-hydroxyphenyl){6-[1-(4-fluoro-2-tolyl)-5-methyl-2-imidazolyl]-2-aza-2-spiro[3.3]heptyl}methanone]
IC50 [1]: 1 to 5.1 µM

Cc1cn(C2CC3(C2)CN(C(=O)c2cc(O)ccc2F)C3)nc1-c1ccccc1C(F)(F)F [Compound 444, (2-fluoro-5-hydroxyphenyl)(6-{4-methyl-3-[o-(trifluoromethyl)phenyl]-1-pyrazolyl}-2-aza-2-spiro[3.3]heptyl)methanone]
IC50 [3]: < 0.05 µM

Cc1cnn(C2CC3(C2)CN(C(=O)c2cc(O)ccc2C(F)(F)F)C3)c1-c1ccccc1F [Compound 494]
IC50 [7]: > 10 µM

Cc1cc(C2CC3(C2)CN(C(=O)c2ccoc2)C3)n(-c2ccccc2C)n1 [Compound 179]
IC50 [2]: > 10 µM

Cc1cn(C2CC3(C2)CN(C(=O)c2cc(O)ccc2C(F)(F)F)C3)nc1-c1ccccc1F [Compound 495]
IC50 [7]: > 10 µM

O=C(c1cc(O)ccc1F)N1CC2(CC(n3cc(C4CC4)c(-c4ccccc4Cl)n3)C2)C1 [Compound 445]
IC50 [5]: > 10 µM

O=C(c1cc(O)ccc1F)N1CC2(CC(C(=O)N3CCOCC3)C2)C1 [Compound 384]
IC50 [4]: > 10 µM

Cc1cc(-c2cc(F)ccc2C)n(C2CC3(C2)CN(C(=O)c2ccc(F)cc2OC(F)(F)F)C3)n1 [Compound 427]
IC50 (Method 11: Reaction Biology MAGL enzyme, 25 nM (name: Conc 20), read-out: Potency (MAGL inhibition)): > 10 µM

Cc1cn(C2CC3(C2)CN(C(=O)c2ccc(F)cc2OC2CC2)C3)nc1-c1ccccc1F [Compound 425, (2-cyclopropoxy-4-fluorophenyl){6-[3-(o-fluorophenyl)-4-methyl-1-pyrazolyl]-2-aza-2-spiro[3.3]heptyl}methanone]
IC50 [3]: 0.15 to 0.5 µM

Cc1cc(C2CC3(C2)CN(C(=O)c2cc(O)ccc2F)C3)n(-c2cc(F)ccc2C)n1 [Compound 365, (2-fluoro-5-hydroxyphenyl){6-[1-(5-fluoro-2-tolyl)-3-methyl-5-pyrazolyl]-2-aza-2-spiro[3.3]heptyl}methanone]
IC50 [1]: < 0.05 µM

O=C(c1cc(O)ccc1F)N1CC2(CC(n3ccc(-c4ccccc4C(F)(F)F)n3)C2)C1 [Compound 525, (2-fluoro-5-hydroxyphenyl)(6-{3-[o-(trifluoromethyl)phenyl]-1-pyrazolyl}-2-aza-2-spiro[3.3]heptyl)methanone]
IC50 (Method 12: Reaction Biology MAGL enzyme, 15 nM, read-out: MAGL Potency (Detection Method)): < 0.05 µM

Cc1ccc(F)cc1-c1cc(C)n(C2CC3(C2)CN(C(=O)c2ccc(F)cc2OC(F)(F)F)C3)n1 [Compound 454, {6-[3-(5-fluoro-2-tolyl)-5-methyl-1-pyrazolyl]-2-aza-2-spiro[3.3]heptyl}(4-fluoro-2-trifluoromethoxyphenyl)methanone]
IC50 [6]: 1 to 5.1 µM

Cc1ccc(F)cc1-c1cc(C)n(C2CC3(C2)CN(C(=O)c2ccc(F)cc2OC2CC2)C3)n1 [Compound 450, (2-cyclopropoxy-4-fluorophenyl){6-[3-(5-fluoro-2-tolyl)-5-methyl-1-pyrazolyl]-2-aza-2-spiro[3.3]heptyl}methanone]
IC50 [3]: 0.15 to 0.5 µM

Cc1ccccc1-c1c(C)cnn1C1CC2(C1)CN(C(=O)c1cc(O)ccc1F)C2 [Compound 373, (2-fluoro-5-hydroxyphenyl){6-[4-methyl-5-(o-tolyl)-1-pyrazolyl]-2-aza-2-spiro[3.3]heptyl}methanone]
IC50 [1]: 0.15 to 0.5 µM

O=C(c1c(F)cccc1OC1CC1)N1CC2(CC(n3ncc(C(F)(F)F)c3-c3ccccc3F)C2)C1 [Compound 521]
IC50 [7]: > 10 µM

Cc1cn(C2CC3(C2)CN(C(=O)c2cc(O)ccc2F)C3)nc1-c1ccccc1Cl [Compound 416]
IC50 [5]: > 10 µM

Cc1cc(-c2cc(F)ccc2C)n(C2CC3(C2)CN(C(=O)c2cc(O)ccc2F)C3)n1 [Compound 415, (2-fluoro-5-hydroxyphenyl){6-[5-(5-fluoro-2-tolyl)-3-methyl-1-pyrazolyl]-2-aza-2-spiro[3.3]heptyl}methanone]
IC50 [3]: 0.05 to 0.15 µM

COc1cc(F)ccc1C(=O)N1CC2(CC(n3nc(-c4cc(F)ccc4C)cc3C)C2)C1 [Compound 439, (4-fluoro-2-methoxyphenyl){6-[3-(5-fluoro-2-tolyl)-5-methyl-1-pyrazolyl]-2-aza-2-spiro[3.3]heptyl}methanone]
IC50 [3]: 1 to 5.1 µM

Cc1cc(-c2ccccc2C)n(C2CC3(C2)CN(C(=O)c2cc(O)ccc2F)C3)n1 [Compound 406]
IC50 [5]: > 10 µM

Cc1cc(-c2cc(F)ccc2C)n(C2CC3(C2)CN(C(=O)c2ccc(F)cc2OC(F)F)C3)n1 [Compound 428]
IC50 [3]: 0.15 to 0.5 µM

Cc1ccc(F)cc1-c1cc(C(F)(F)F)n(C2CC3(C2)CN(C(=O)c2ccc(F)cc2OC2CC2)C3)n1 [Compound 456, (2-cyclopropoxy-4-fluorophenyl){6-[3-(5-fluoro-2-tolyl)-5-(trifluoromethyl)-1-pyrazolyl]-2-aza-2-spiro[3.3]heptyl}methanone]
IC50 [6]: 0.5 to 1 µM

COc1ccccc1C(=O)N1CC2(CC(c3cc(C)nn3-c3ccccc3C)C2)C1 [Compound 143, (2-methoxyphenyl)(6-(3-methyl-1-(o-tolyl)-1H-pyrazol-5-yl)-2-azaspiro[3.3]heptan-2-yl)methanone]
IC50 (Method 2: Cayman Chemical MAGL enzyme, 10 nM, read-out: MAGL Potency (Detection Method)): 1 to 5.1 µM

O=C(c1cc(O)ccc1F)N1CC2(CC(C(=O)N3CCCC3)C2)C1 [Compound 388]
IC50 [4]: > 10 µM

Cc1ccc(F)cc1-c1cc(C)n(C2CC3(C2)CN(C(=O)c2ccc(F)cc2OC(F)F)C3)n1 [Compound 455, (2-difluoromethoxy-4-fluorophenyl){6-[3-(5-fluoro-2-tolyl)-5-methyl-1-pyrazolyl]-2-aza-2-spiro[3.3]heptyl}methanone]
IC50 [3]: 0.05 to 0.15 µM

O=C(c1cc(O)ccc1F)N1CC2(CC(c3nccn3-c3ccccc3)C2)C1 [Compound 401, (2-fluoro-5-hydroxyphenyl){6-(1-phenyl-2-imidazolyl)-2-aza-2-spiro[3.3]heptyl}methanone]
IC50 [1]: 0.5 to 1 µM

Cc1cc(C2CC3(C2)CN(C2CCOc4ccccc42)C3)n(-c2ccccc2C)n1 (centres unmarked) [Compound 152]
IC50 [2]: > 10 µM

Cc1ccccc1-c1ccn(C(=O)C2CC3(C2)CN(C(=O)c2cc(O)ccc2F)C3)n1 [Compound 381, {2-(2-fluoro-5-hydroxybenzoyl)-2-aza-6-spiro[3,3]heptyl}[3-(o-tolyl)-1-pyrazolyl]methanone]
IC50 [1]: 0.15 to 0.5 µM

Cc1cc(-c2cc(F)ccc2C)n(C2CC3(C2)CN(C(=O)c2ccc(F)cc2OCC(F)(F)F)C3)n1 [Compound 466]
IC50 [6]: 0.5 to 1 µM

CCOc1cc(F)ccc1C(=O)N1CC2(CC(C(=O)N(C)c3ccccc3Cl)C2)C1 [Compound 206, N-o-chlorophenyl-N-methyl-2-(2-ethoxy-4-fluorobenzoyl)-2-aza-6-spiro[3.3]heptanecarboxamide]
IC50 (Method 4: Cayman Chemical MAGL enzyme, 15 nM, read-out: MAGL Potency (Detection Method)): 1 to 5.1 µM

Cc1ccccc1-c1cc(C)n(C2CC3(C2)CN(C(=O)c2ccc(F)cc2OCC(F)(F)F)C3)n1 [Compound 465, [4-fluoro-2-(2,2,2-trifluoroethoxy)phenyl]{6-[5-methyl-3-(o-tolyl)-1-pyrazolyl]-2-aza-2-spiro[3.3]heptyl}methanone]
IC50 [6]: 0.15 to 0.5 µM

CCOc1cc(F)ccc1C(=O)N1CC2(CC(C(=O)N(C)c3cccnc3C)C2)C1 [Compound 198]
IC50 (Method 4: Cayman Chemical MAGL enzyme, 15 nM, read-out: Potency (MAGL inhibition)): > 10 µM

Cc1cn(C2CC3(C2)CN(C(=O)c2cc(O)ccc2F)C3)nc1-c1cc(F)ccc1F [Compound 477, {6-[3-(2,5-difluorophenyl)-4-methyl-1-pyrazolyl]-2-aza-2-spiro[3.3]heptyl}(2-fluoro-5-hydroxyphenyl)methanone]
IC50 (Method 13: Reaction Biology MAGL enzyme, 12 nM, read-out: MAGL Potency (Detection Method)): < 0.05 µM

From patent publication US20240308985A1 (Psy Therapeutics, Inc., priority 2021, published 2024)
